Patent US20090011447A1, “QUANTIFICATION OF VITELLOGENIN” (priority 2006, published 2009)
Values joined by “and” are separate entries in the source; they are usually repeats but may differ in a detail not shown here. Equal values may be shown once.

Assays:
Assay type in all cases: in vivo
plasma Vtg [1] = test: Vtg induction with β-estradiol in Atlantic salmon, plasma signature peptide quantified by HPLC-QqToF-MS/MS; conditions: experimental (E) Atlantic salmon, individual fish
Protocol: (§1) Thirteen juvenile Rainbow trout and ten mature Atlantic salmon were kept in two 60 gallon tanks with running fresh and sea water, respectively. A 12 hour light-darkness cycle was maintained during the experiment. After one month of acclimatization, experimental fish were injected intraperitoneally four times, at one week intervals, with a dose of 10 mg of β-estradiol per kilogram of body weight using a 10 mg/mL solution in oil:acetone (9:1). Control fish were injected with the oil:acetone solution only.
(§2) One week before the first injection and one week after the last injection, fish were anesthetized using tricaine methanesulfonate (TMS) and blood samples were collected from the caudal vein using heparinized syringes and transferred in 1 mL portions into plastic tubes kept in ice. Samples were centrifuged at 3000 rpm for 5 minutes at 0° C. Plasma was separated and kept frozen at −80° C. until further analysis.
(§3) Five μL of plasma were mixed with 100 μL of denaturing buffer (8M urea, 4 mM dithiothreitol) and heated at 65° C. Then, 300 μL of a 50 mM solution of NH4HCO3 were added, followed by 95 μL of a 20 μg/mL trypsin solution. Digestion was carried out at 38° C. for 24 hours. Aliquots of 100 μL of the digested samples were mixed with 380 μL of solvent B (H2O: acetonitrile: acetic acid 70:30:0.1) and spiked with 20 μL of 5 μg/mL labeled standard solution. Finally, the samples were passed through 0.45 μm filters (Millipore Billerica Mass., USA, Cat. No. SJHV004NS) prior to injection into the HPLC.
(§4) In the case of Rainbow trout and salmon, samples and standards were analyzed with a HPLC system (HP 1050 from Hewlett-Packard, Palo Alto Calif., USA) coupled on-line to a QqToF (QStar XL, Applied Biosystems, Foster City Calif., USA) tandem mass spectrometer equipped with an ESI ion source (TurbolonSpray). […]
(§5) For quantification purposes, the extracted ion chromatograms of these diagnostic product ions were generated using a 2 Da mass range window around the selected product ions and manually integrated. […]

Vtg = Vtg induction with β-estradiol in Atlantic cod, assessed by SDS-PAGE; conditions: experimental Atlantic cod serum, Coomassie blue stained gel, vs control fish
Protocol: Twelve mature female Atlantic cod fish were kept in a 60 gallon tank with a running sea water supply and fed, ad libitum. A 12 hour light-darkness cycle was maintained during the experiment. After one month of acclimatization, experimental fish were injected intraperitoneally four times, at one week intervals, a dose of 10 mg of β-estradiol per kilogram of fish body weight using a 10 mg/ml solution in oil:acetone (9:1). Control fish were injected only with the oil:acetone solution. One week after the last injection, fish were anesthetized using tricaine methanesulfonate (TMS) and bled. Blood samples were collected from the caudal vein using heparinized syringes and transferred in 1 mL portions into plastic tubes kept in ice. Twenty microliters of a 4 TIU aprotinin solution were added to each sample, homogenized and centrifuged at 3000 rpm for 5 minutes at 0° C. Plasma was separated and kept frozen at -80° C. until further analysis. Separation of Vtg by SDS-PAGE and subsequent “in-gel” digestion was performed following the procedure described in detail by […] et al. with minor modifications^65. Five microliters of thawed plasma from both experimental and control fish were mixed and loaded onto a 6% acrylamide gel and run for one hour at 180 V. The gel was stained using the colloidal Coomassie blue protocol. […]

plasma Vtg [2] = test: Vtg induction with β-estradiol in Rainbow trout, plasma signature peptide quantified by HPLC-QqToF-MS/MS; conditions: experimental (E) Rainbow trout, individual fish
Protocol: as §1, §2, §3, §4, §5

[3] = converted from SP assuming 1:1 molar ratio
[4] = one week after last of four weekly i.p. injections of 10 mg/kg, 10 mg/kg

## C[C@]12CC[C@@H]3c4ccc(O)cc4CC[C@H]3[C@@H]1CC[C@@H]2O [β-estradiol]
Plasma Vtg [1]
  Vtg Conc, After β-estradiol: 0.383 µM and 0.591 µM and 0.268 µM and 0.399 µM and 0.330 µM
Plasma Vtg [1]; [3]
  Vtg Conc, After β-estradiol: 6.967 µg/mL and 10.758 µg/mL and 4.876 µg/mL and 7.254 µg/mL and 5.997 µg/mL
Plasma Vtg [1]; [4]
  SP Conc, After β-estradiol: 0.628 µg/mL and 0.969 µg/mL and 0.439 µg/mL and 0.653 µg/mL and 0.540 µg/mL
Vtg
  Vtg induction (SDS-PAGE band): strong induced band
Plasma Vtg [2]
  Vtg Conc, After β-estradiol: 0.351 µM and 0.487 µM and 0.343 µM and 0.278 µM and 0.375 µM and 0.471 µM and 0.120 µM and 0.225 µM and 0.113 µM and 0.344 µM and 0.460 µM
Plasma Vtg [2]; [3]
  Vtg Conc, After β-estradiol: 6.389 µg/mL and 8.867 µg/mL and 6.239 µg/mL and 5.059 µg/mL and 6.830 µg/mL and 8.562 µg/mL and 2.182 µg/mL and 4.091 µg/mL and 2.057 µg/mL and 6.264 µg/mL and 8.370 µg/mL
Plasma Vtg [2]; [4]
  SP Conc, After β-estradiol: 0.576 µg/mL and 0.799 µg/mL and 0.562 µg/mL and 0.456 µg/mL and 0.615 µg/mL and 0.771 µg/mL and 0.197 µg/mL and 0.368 µg/mL and 0.185 µg/mL and 0.564 µg/mL and 0.754 µg/mL
